Measured values: US20100292231A1, “Indazole Compounds for Treating Inflammatory Disorders, Demyelinating Disorders and Cancers” (priority 2007, published 2010)
pEC50: −log10 of the molar value.

Experiments:
Test in all cases: SelectScreen kinase specificity survey
Assay type in all cases: biochemical
Settings in all cases: estimated, abridged dose response curve, read-out: Kinase inhibitory activity EC50
ABL1 = target: T1, ABL1 (Homo sapiens, UniProt P00519)
T1 construct: purchased Invitrogen (SelectScreen platform)
Summary of the method: (§1)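 Specificity was surveyed across 230 kinases using kinase-matched substrate/optical reporter pairs and 100 micromolar ATP. EC50 comes from a 4-parameter Hill fit of an abridged curve.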

AMPK A1/B1/G1 = target: T2, AMPK A1/B1/G1 (Homo sapiens, UniProt P54619+Q13131+Q9Y478)
T2 construct: purchased Invitrogen, Inc. (SelectScreen platform)
Summary of the method: as §1

BMX = target: T3, BMX (Homo sapiens, UniProt P51813)
T3 construct: purchased Invitrogen (SelectScreen)
T3 sequence (P51813 whole entry): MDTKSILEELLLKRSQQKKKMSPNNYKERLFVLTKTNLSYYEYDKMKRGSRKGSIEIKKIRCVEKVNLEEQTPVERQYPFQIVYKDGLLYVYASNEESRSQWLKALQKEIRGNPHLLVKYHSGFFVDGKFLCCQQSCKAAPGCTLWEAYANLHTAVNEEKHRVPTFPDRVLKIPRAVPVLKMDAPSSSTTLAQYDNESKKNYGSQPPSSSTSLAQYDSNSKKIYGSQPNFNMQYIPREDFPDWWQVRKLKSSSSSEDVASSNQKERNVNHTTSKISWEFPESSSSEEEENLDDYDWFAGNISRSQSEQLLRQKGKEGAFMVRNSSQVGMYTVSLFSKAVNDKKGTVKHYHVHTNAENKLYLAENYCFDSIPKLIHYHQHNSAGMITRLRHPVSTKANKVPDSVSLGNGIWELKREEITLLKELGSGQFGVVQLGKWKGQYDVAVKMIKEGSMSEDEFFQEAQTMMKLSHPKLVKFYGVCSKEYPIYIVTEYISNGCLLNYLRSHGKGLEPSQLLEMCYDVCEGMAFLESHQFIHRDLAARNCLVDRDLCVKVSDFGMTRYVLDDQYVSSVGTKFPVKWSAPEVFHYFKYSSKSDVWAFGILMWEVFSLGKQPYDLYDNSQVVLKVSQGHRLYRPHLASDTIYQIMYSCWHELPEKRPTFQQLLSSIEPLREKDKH
Summary of the method: as §1

CAMK1D (CaMKI delta) = target: T4, CAMK1D (CaMKI delta) (Homo sapiens, UniProt Q8IU85)
T4 construct: purchased Invitrogen, Inc. (SelectScreen platform)
Summary of the method: as §1

CDK5/p35 = target: T5, CDK5/p35 (Homo sapiens, UniProt Q00535)
T5 construct: purchased Invitrogen (SelectScreen platform)
T5 sequence (Q00535 whole entry): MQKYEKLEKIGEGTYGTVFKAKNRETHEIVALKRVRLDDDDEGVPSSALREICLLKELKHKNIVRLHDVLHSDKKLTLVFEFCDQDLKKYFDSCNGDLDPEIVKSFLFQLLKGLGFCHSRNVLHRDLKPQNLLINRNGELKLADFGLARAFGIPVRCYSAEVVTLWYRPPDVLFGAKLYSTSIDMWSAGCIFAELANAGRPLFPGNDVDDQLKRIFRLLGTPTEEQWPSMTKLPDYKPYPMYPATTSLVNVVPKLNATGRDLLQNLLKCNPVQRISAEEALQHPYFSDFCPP
T5 sequence (Q15078 2-307 partner limits assumed): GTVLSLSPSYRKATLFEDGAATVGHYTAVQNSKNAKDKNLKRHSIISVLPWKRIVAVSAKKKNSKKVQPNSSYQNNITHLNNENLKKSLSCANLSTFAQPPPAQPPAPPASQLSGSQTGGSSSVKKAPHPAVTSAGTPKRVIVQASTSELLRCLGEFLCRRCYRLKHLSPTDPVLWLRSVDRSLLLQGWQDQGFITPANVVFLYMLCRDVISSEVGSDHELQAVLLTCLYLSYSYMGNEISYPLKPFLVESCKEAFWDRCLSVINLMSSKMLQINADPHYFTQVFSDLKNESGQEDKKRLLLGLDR
Summary of the method: as §1

CSNK1D (CK1 delta) = target: T6, CSNK1D (CK1 delta) (Homo sapiens, UniProt P48730)
T6 construct: purchased Invitrogen (SelectScreen platform)
Summary of the method: as §1

CSNK1G3 (CK1 gamma 3) = target: T7, CSNK1G3 (CK1 gamma 3) (Homo sapiens, UniProt Q9Y6M4)
T7 construct: purchased Invitrogen (SelectScreen platform)
T7 sequence (Q9Y6M4 whole entry): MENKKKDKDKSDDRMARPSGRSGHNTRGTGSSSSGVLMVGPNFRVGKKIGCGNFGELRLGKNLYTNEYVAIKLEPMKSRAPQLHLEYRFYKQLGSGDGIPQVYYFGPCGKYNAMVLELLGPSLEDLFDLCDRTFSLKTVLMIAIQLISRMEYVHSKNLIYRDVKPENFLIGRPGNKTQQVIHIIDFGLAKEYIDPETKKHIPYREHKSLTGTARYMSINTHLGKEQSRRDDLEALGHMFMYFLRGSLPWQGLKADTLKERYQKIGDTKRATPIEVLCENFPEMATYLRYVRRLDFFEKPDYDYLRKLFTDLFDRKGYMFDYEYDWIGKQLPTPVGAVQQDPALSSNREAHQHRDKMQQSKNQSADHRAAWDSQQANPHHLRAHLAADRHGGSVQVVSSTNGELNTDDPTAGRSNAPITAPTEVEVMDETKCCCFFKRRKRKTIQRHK
Summary of the method: as §1

CSNK2A1 (CK2 alpha 1) = target: T8, CSNK2A1 (CK2 alpha 1) (Homo sapiens, UniProt P68400)
T8 construct: purchased Invitrogen, Inc. (SelectScreen service)
Summary of the method: as §1

ERBB2 (HER2) = target: T9, ERBB2 (HER2) (Homo sapiens, UniProt P04626)
T9 construct: purchased Invitrogen (SelectScreen service)
T9 sequence (P04626 23-1255): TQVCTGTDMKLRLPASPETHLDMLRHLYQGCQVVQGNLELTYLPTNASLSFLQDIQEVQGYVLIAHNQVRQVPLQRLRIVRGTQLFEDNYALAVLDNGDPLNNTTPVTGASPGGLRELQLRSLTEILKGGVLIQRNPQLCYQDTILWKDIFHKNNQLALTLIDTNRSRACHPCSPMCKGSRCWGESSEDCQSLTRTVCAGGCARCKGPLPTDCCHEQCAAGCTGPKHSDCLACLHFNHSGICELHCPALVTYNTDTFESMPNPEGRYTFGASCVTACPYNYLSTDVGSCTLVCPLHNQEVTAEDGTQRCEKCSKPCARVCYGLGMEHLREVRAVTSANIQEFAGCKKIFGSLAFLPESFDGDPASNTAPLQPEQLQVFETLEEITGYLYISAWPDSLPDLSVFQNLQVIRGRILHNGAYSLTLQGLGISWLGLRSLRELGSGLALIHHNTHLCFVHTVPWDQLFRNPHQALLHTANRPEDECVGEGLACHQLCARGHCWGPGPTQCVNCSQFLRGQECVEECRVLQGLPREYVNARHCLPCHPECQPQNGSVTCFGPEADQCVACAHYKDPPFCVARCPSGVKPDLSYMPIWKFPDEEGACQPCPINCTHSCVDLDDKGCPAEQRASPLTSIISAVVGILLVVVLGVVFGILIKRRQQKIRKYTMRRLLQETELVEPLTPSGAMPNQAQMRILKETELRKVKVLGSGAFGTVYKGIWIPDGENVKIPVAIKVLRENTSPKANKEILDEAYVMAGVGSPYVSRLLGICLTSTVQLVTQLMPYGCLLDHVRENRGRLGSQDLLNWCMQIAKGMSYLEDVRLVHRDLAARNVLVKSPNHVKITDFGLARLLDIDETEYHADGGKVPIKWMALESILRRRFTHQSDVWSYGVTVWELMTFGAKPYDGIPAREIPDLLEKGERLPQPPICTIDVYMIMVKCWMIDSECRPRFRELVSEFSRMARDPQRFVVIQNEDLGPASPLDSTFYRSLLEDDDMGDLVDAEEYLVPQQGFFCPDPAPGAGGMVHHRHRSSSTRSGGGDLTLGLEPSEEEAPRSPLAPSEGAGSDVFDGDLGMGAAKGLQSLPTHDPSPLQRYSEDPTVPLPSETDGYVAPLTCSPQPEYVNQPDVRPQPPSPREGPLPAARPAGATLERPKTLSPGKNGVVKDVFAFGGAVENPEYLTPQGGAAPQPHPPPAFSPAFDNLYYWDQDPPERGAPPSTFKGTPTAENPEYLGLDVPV
Summary of the method: as §1

FRK (PTK5) = target: T10, FRK (PTK5) (Homo sapiens, UniProt P42685)
T10 construct: purchased Invitrogen (SelectScreen)
T10 sequence (P42685 whole entry): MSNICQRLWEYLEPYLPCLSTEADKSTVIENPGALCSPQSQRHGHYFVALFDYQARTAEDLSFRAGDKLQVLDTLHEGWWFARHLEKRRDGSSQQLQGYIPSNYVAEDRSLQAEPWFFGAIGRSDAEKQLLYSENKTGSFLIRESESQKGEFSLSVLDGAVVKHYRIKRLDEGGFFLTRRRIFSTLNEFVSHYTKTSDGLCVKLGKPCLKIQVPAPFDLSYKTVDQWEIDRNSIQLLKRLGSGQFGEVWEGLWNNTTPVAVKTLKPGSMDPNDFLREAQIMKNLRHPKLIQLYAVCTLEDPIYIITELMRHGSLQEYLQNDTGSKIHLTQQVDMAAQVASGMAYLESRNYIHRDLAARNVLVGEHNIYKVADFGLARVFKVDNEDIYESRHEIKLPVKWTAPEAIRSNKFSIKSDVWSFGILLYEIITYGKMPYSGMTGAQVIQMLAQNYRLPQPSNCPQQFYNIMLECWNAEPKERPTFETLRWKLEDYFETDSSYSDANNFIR
Summary of the method: as §1

MAP2K6 (MKK6) = target: T11, MAP2K6 (MKK6) (Homo sapiens, UniProt P52564)
T11 construct: purchased Invitrogen (SelectScreen platform)
Summary of the method: as §1

MAP3K8 (COT) = target: T12, MAP3K8 (COT) (Homo sapiens, UniProt P41279)
T12 construct: purchased Invitrogen, Inc. (SelectScreen service)
Summary of the method: as §1

MET (cMet) = target: T13, MET (cMet) (Homo sapiens, UniProt P08581)
T13 construct: purchased Invitrogen (SelectScreen platform)
Summary of the method: as §1

MST4 = target: T14, MST4 (Homo sapiens, UniProt Q9P289)
T14 construct: purchased Invitrogen (SelectScreen platform)
T14 sequence (Q9P289 whole entry): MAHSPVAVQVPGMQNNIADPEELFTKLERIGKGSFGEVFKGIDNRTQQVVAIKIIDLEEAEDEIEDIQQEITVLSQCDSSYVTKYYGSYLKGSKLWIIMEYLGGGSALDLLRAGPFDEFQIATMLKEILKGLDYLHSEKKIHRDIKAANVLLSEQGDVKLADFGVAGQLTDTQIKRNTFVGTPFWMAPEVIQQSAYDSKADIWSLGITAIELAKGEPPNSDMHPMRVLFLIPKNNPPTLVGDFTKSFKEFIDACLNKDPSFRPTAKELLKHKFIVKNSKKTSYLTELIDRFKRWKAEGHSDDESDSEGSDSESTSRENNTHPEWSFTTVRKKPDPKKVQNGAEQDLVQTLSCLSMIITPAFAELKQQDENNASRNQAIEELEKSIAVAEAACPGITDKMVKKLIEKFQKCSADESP
Summary of the method: as §1

NEK2 = target: T15, NEK2 (Homo sapiens, UniProt P51955)
T15 construct: purchased Invitrogen, Inc. (SelectScreen service)
T15 sequence (P51955 whole entry): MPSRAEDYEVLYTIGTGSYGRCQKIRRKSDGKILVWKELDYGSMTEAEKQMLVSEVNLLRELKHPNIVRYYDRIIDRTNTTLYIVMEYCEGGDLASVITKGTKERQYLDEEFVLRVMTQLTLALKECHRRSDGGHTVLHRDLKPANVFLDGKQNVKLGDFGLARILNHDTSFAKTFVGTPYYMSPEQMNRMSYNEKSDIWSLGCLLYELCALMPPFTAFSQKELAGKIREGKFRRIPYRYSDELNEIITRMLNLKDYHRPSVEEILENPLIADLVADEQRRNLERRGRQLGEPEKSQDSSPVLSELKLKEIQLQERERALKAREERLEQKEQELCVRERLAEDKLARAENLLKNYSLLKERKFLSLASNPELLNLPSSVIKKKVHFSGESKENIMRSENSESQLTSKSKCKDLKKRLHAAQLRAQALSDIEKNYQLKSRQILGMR
Summary of the method: as §1

PAK7 (KIAA1264, PAK5) = target: T16, PAK7 (KIAA1264, PAK5) (Homo sapiens, UniProt Q9P286)
T16 construct: purchased Invitrogen (SelectScreen platform)
Summary of the method: as §1

PDGFRA V561D = target: T17, PDGFRA V561D (Homo sapiens, UniProt P16234, V561D)
T17 construct: purchased Invitrogen (SelectScreen platform)
Summary of the method: as §1

PLK3 = target: T18, PLK3 (Homo sapiens, UniProt Q9H4B4)
T18 construct: purchased Invitrogen, Inc. (SelectScreen service)
Summary of the method: as §1

PRKG2 (PKG2) = target: T19, PRKG2 (PKG2) (Homo sapiens, UniProt Q13237)
T19 construct: purchased Invitrogen, Inc. (SelectScreen platform)
Summary of the method: as §1

ROCK1 = target: T20, ROCK1 (Homo sapiens, UniProt Q13464)
T20 construct: purchased Invitrogen (SelectScreen platform)
Summary of the method: as §1

STK23 (MSSK1) = target: T21, STK23 (MSSK1) (Homo sapiens, UniProt Q9UPE1)
T21 construct: purchased Invitrogen, Inc. (SelectScreen service)
T21 sequence (Q9UPE1 whole entry): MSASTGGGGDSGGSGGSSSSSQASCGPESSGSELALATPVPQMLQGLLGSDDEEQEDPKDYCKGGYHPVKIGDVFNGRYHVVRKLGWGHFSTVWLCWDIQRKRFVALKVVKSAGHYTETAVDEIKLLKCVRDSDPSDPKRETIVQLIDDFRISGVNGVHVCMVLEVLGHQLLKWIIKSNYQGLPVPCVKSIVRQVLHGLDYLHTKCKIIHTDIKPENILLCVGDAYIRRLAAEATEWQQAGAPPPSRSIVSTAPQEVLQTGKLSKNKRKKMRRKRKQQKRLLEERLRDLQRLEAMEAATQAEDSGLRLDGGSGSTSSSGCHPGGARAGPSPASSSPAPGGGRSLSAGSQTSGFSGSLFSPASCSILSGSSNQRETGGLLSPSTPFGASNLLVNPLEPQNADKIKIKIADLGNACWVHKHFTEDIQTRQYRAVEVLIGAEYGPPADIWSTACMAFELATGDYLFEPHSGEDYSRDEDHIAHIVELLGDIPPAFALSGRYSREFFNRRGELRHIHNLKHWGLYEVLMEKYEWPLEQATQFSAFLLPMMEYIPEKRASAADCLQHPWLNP
Summary of the method: as §1

YES1 (YES) = target: T22, YES1 (YES) (Homo sapiens, UniProt P07947)
T22 construct: purchased Invitrogen (SelectScreen)
Summary of the method: as §1

Row | SMILES | pEC50 (ABL1) | pEC50 (AMPK A1/B1/G1) | pEC50 (BMX) | pEC50 (CAMK1D (CaMKI delta)) | pEC50 (CDK5/p35) | pEC50 (CSNK1D (CK1 delta)) | pEC50 (CSNK1G3 (CK1 gamma 3)) | pEC50 (CSNK2A1 (CK2 alpha 1)) | pEC50 (ERBB2 (HER2)) | pEC50 (FRK (PTK5)) | pEC50 (MAP2K6 (MKK6)) | pEC50 (MAP3K8 (COT)) | pEC50 (MET (cMet)) | pEC50 (MST4) | pEC50 (NEK2) | pEC50 (PAK7 (KIAA1264, PAK5)) | pEC50 (PDGFRA V561D) | pEC50 (PLK3) | pEC50 (PRKG2 (PKG2)) | pEC50 (ROCK1) | other results
1 | CN(C)CCCNc1ccc2ncn3c4ccc5[nH]ncc5c4c(=O)c1c23 [Compound (IV)] | 5.42 | < 5.30 | 5.49 | 5.56 | 5.55 | 5.32 | < 5.30 | < 5.30 | < 5.30 | 6.41 | < 5.30 | < 5.30 | < 5.30 | < 5.30 | < 5.30 | < 5.30 | 7.22 | < 5.30 | 5.72 | 6.31 | pEC50 (STK23 (MSSK1)): < 5.30; pEC50 (YES1 (YES)): 5.80
2 | CCN(CC)CCNc1ccc2ncn3c4ccc(O)cc4c(=O)c1c23 [Symadex, 5-(2-(diethylamino)ethylamino)-8-hydroxy-6H-imidazo[4,5,1-de]acridin-6-one, reference compound] | < 5.30 | 5.46 | < 5.30 | 5.40 | < 5.30 | 6.17 | < 5.30 | < 5.30 | < 5.30 | 5.68 | < 5.30 | 5.33 | < 5.30 | 5.80 | < 5.30 | < 5.30 | 7.08 | < 5.30 | 5.55 | < 5.30 | pEC50 (STK23 (MSSK1)): < 5.30; pEC50 (YES1 (YES)): < 5.30
